The inhibition in vivo is the change of the read-out against control, counted positive when it falls.

The subject of the assay is rat PCA response. The assay is described as follows: Rat Passive Cutaneous Anaphylaxis (PCA) test. The format is in vivo, rat (male Wistar serum donors; Wistar test rats). The protocol:
Some of the substituted 4-hydroxy-3-nitro-α-pyridones prepared in the previous examples were submitted for biological testing. The test system was the Rat Passive Cutaneous Anaphylaxis (PCA) test described below in (ii).
i. Serum containing heat labile homocytotropic antibody was raised in rats by a method similar to that used by Mota. (I. Mota Immunology 1964, 7, 681).
Male Wistar rats of 250- 300g, were injected intraperitoneally with 0.5ml of Bordatella pertussis vaccine (containing 4 × 10^10 dead organism per ml) and subcutaneously with 0.5ml of an emulsion of 100mg of ovalbumin in 2ml of saline and 3ml of incomplete Freunds' adjuvant. Rats were bled by cardiac puncture on day 18, the blood was pooled and separated and serum stored at -20° C and thawed only once before use.
ii. The P.C.A. test was similar to that described by Ovary and Bier (A. Ovary and O. E. Bier, Proc. Soc. Exp. Biol.Med.1952, 81, 584) and Goose and Blair (J. Goose and A. M. J. N. Blair, Immunology 1969, 16, 769).
0.1ml. of each six twofold serial dilutions of the serum in 0.9% saline were injected intradermally into separate sites on the shaved dorsal surface of 250-350 g Wistar rats. 72 hours later the animals were challenged by i.v. injection of 0.3ml of 1% ovalbumin mixed with 0.1ml of a 5% solution of pontamine sky blue dye both in isotonic saline buffered with pH 7.2 Sorenson buffer (P.B.S.). The rats were killed after 20 minutes and the diameter of the blue wheals at the antibody injection sites were measured. The starting dilution of the serum was adjusted so that there was no response, after challenge, at the site of injection of the highest dilution and a maximum response at the lowest dilution. Typically, six twofold serial dilutions of the serum from 1/4 to 1/128 were used.
Compounds were tested for their ability to reduce the diameter of the wheals at the injection sites of dilutions of antibody which on all the controls have less than maximum response. Amounts of the compounds were administered to rats each amount to a test group of six animals at a specified time prior to intravenous challenge with ovalbumin. The diameters of the blue wheals which developed on the test group of animals were compared with those on a control group of six animals treated in the same way as the test group, but which had not received the compound under test.
% Inhibition of P.C.A. = 100 (1 - (a/b))
a = The mean of the sum of the diameters of the wheels produced in the test group of animals at those antibody sites where all the control group of animals gave less than maximum response.
b = The mean of the sum of diameters of the wheals produced in the control group of animals at those antibody sites where all the animals in the group gave less than the maximum response.
The compounds were administered either as a solution of the free nitro compound or as a solution or suspension in 1% methyl cellulose of the sodium salt.

[1] abbreviates: time 30 mins prior to challenge.
[2] abbreviates: time 60 mins prior to challenge.
Setting [3] is: time 10 mins prior to challenge.

Structures are written as SMILES.

Regarding `O=c1[nH]c2c(c(O)c1[N+](=O)[O-])CCCC2` [Example 1, 4-Hydroxy-3-nitro-5,6,7,8-tetrahydrocarbostyril], the inhibition in vivo at 25 mg/kg reads like this: (time 0 mins prior to challenge) 16%; under setting [1], 15%. In addition, the inhibition in vivo at 100 mg/kg is, setting by setting: (time 0 mins prior to challenge) 70%; under setting [1], 20%.
Turning to `CC1CCc2c([nH]c(=O)c([N+](=O)[O-])c2O)C1` (centres unmarked) [Example 2, 4-Hydroxy-7-methyl-3-nitro-5,6,7,8-tetrahydrocarbostyril], the inhibition in vivo at 25 mg/kg is, setting by setting: (time 0 mins prior to challenge) 36%; under setting [1], 49%. Also, the inhibition in vivo at 100 mg/kg by setting is: (time 0 mins prior to challenge) 76%; under setting [1], 40%.
Taken in the same sequence, the figures for `O=c1[nH]c2c(c(O)c1[N+](=O)[O-])CCC2` [Example 3, 5,6-Cyclopenteno-4-hydroxy-3-nitro-α-pyridone] were 10%, -20%, 28% and 6%.
Consider `O=c1[nH]c2c(c(O)c1[N+](=O)[O-])CCCCC2` [Example 4, 5,6-cycloheptenyl-4-hydroxy-3-nitro-α-pyridone], for which, where the note is “time 0 mins prior to challenge”, the inhibition in vivo at 25 mg/kg was -10% and the inhibition in vivo at 100 mg/kg is -3%. Under setting [2], the inhibition in vivo at 25 mg/kg stood at 1% and the inhibition in vivo at 100 mg/kg came out at 27%.
In the case of `CC1Cc2[nH]c(=O)c([N+](=O)[O-])c(O)c2C(C)C1` (centres unmarked) [Example 5, 5,7-dimethyl-4-hydroxy-3-nitro-5,6,7,8-tetrahydrocarbostyril], where the note is “time 0 mins prior to challenge”, the inhibition in vivo at 25 mg/kg was 27% and the inhibition in vivo at 100 mg/kg came to 72%. For the same molecule, under setting [1], the inhibition in vivo at 25 mg/kg came out at 14% and the inhibition in vivo at 100 mg/kg is 42%.
On to `CC1CCc2[nH]c(=O)c([N+](=O)[O-])c(O)c2C1` (centres unmarked) [Example 6, 4-Hydroxy-6-methyl-3-nitro-5,6,7,8-tetrahydrocarbostyril], for which, for the setting “time 0 mins prior to challenge”, the inhibition in vivo at 25 mg/kg was 1% and the inhibition in vivo at 100 mg/kg was 24%. Under setting [2], the inhibition in vivo at 25 mg/kg amounted to 15% and the inhibition in vivo at 100 mg/kg stood at 37%.
As for `O=c1[nH]c2c(c(O)c1[N+](=O)[O-])CCCCCC2` [Example 7, 5,6-cyclooctenyl-4-hydroxy-3-nitro-α-pyridone], the inhibition in vivo at 25 mg/kg runs as follows: under setting [3], 17%; under setting [1], 15%. Further, the inhibition in vivo at 100 mg/kg reads like this: under setting [3], 59%; under setting [1], 37%.
Take `CCn1c2c(c(O)c([N+](=O)[O-])c1=O)CCCC2` [Example 8, 1-Ethyl-4-hydroxy-3-nitro-5,6,7,8-tetrahydrocarbostyril]: under “time 0 mins prior to challenge”, the inhibition in vivo at 25 mg/kg is -5% and the inhibition in vivo at 100 mg/kg came to 12%. Further, under setting [1], the inhibition in vivo at 25 mg/kg amounted to 14% and the inhibition in vivo at 100 mg/kg stood at 75%.
The matching figures for `CCCn1c2c(c(O)c([N+](=O)[O-])c1=O)CCCC2` [Example 9, 4-Hydroxy-3-nitro-1-n-propyl-5,6,7,8-tetrahydrocarbostyril]: 51%, 18%, 25% and 69%.
With `CC(C)n1c2c(c(O)c([N+](=O)[O-])c1=O)CCCC2` [Example 10, 4-Hydroxy-1-isopropyl-3-nitro-5,6,7,8-tetrahydrocarbostyril], the inhibition in vivo at 25 mg/kg is, setting by setting: (time 0 mins prior to challenge) 5%; under setting [1], 0%. Besides, the inhibition in vivo at 100 mg/kg (time 0 mins prior to challenge) was 8% and the inhibition in vivo at 100 mg/kg under setting [1] came to 16%.
Taken in the same sequence, the figures for `CCn1c2c(c(O)c([N+](=O)[O-])c1=O)CCC(C)C2` (centres unmarked) [Example 11, 1-Ethyl-4-hydroxy-7-methyl-3-nitro-5,6,7,8-tetrahydrocarbostyril] were 8%, 38%, 31% and 57%.

(Values after US4006237A, “Tetrahydrocarbostyril derivatives for the prophylaxis of asthma, hayfever and rhinitis” (Beecham Group Limited, priority 1973, dated 1977).)
